Test results published in PubChem BioAssay AID220 (DTP/NCI, 2004).
Values joined by “and” are separate entries in the source; they are usually repeats but may differ in a detail not shown here. Equal entries are not always repeated. Records with an inconclusive call do not appear. Starred links: 1 amine or outer side, 2 acyl side, 3 side chain; linkers in the order of their positions; H or OH if unused. Positions of bridges follow the written chain, without caps; N, C: chain ends. Non-standard residues stand in square brackets, D forms with d. Residues, ends and D or L forms follow the SMILES beside them. Chains are numbered I, II in the order given. Actinocin(9to1) = Cc1c2oc3c(C)ccc(C(=O)[*:1])c3nc-2c(C(=O)[*:2])c(N)c1=O; NMeV = CN[CH](C(=O)O)C(C)C; Sar = CNCC(=O)O

System: CD8F1 mice, subcutaneous mammary adenocarcinoma, T/C%
Assay: NCI In Vivo Anticancer Drug Screen. Data for tumor model Mammary Adenocarcinoma CD8F1 (subcutaneous) in CD8F1
Settings: higher = larger tumour
Method in brief: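 Ratio of treated to vehicle-control outcome, based on either survival or tumor size, in mice bearing transplantable tumors given the test compound.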

[1] = endpoint: median tumor weight change, dose: 62.5 mg/kg/injection, schedule: Q01DX001 (ip), vehicle: saline with Tween-80
[2] = endpoint: median tumor weight change, dose: 250.0 mg/kg/injection, schedule: Q01DX001 (ip), vehicle: saline with Tween-80
[3] = endpoint: median tumor weight change, dose: 125.0 mg/kg/injection, schedule: Q01DX001 (ip), vehicle: saline with Tween-80

**Q.** With COc1cc(C(C)(C)C)cc(OC)c1C(O)(c1c(OC)cc(C(C)(C)C)cc1OC)c1c(OC)cc(C(C)(C)C)cc1OC as the compound, how does the T/C [1] read?
**A.** 102 % of control

**Q.** And the T/C (endpoint: median tumor weight change, dose: 125.0 mg/kg/injection, schedule: Q01DX001 (ip), vehicle: Klucel (hydroxypropylcellulose) (HPC))?
**A.** 98 % of control

**Q.** And the T/C (endpoint: median tumor weight change, dose: 250.0 mg/kg/injection, schedule: Q01DX001 (ip), vehicle: Klucel (hydroxypropylcellulose) (HPC))?
**A.** 62 % of control

**Q.** What about the T/C [2] of the same compound?
**A.** 48 % of control and 70 % of control

**Q.** And the T/C (endpoint: median tumor weight change, dose: 500.0 mg/kg/injection, schedule: Q01DX001 (ip), vehicle: Klucel (hydroxypropylcellulose) (HPC))?
**A.** 67 % of control

**Q.** What about the T/C (endpoint: median tumor weight change, dose: 500.0 mg/kg/injection, schedule: Q01DX001 (ip), vehicle: saline with Tween-80) of the same compound?
**A.** 37 % of control and 46 % of control

**Q.** What about the T/C (endpoint: median tumor weight change, dose: 1000.0 mg/kg/injection, schedule: Q01DX001 (ip), vehicle: saline with Tween-80) of the same compound?
**A.** 17 % of control

**Q.** How did the T/C [1] turn out when CC(=O)ON(C(C)=O)c1ccc(C(N)=O)cc1 was run?
**A.** 68 % of control

**Q.** And the T/C [3]?
**A.** 96 % of control

**Q.** What about the T/C [2] of the same compound?
**A.** 64 % of control

**Q.** Which T/C (endpoint: mean tumor weight, dose: 25.0 mg/kg/injection, schedule: Q01DX009 (ip), vehicle: saline) does the source give for Nc1n[nH]c(N)n1 here?
**A.** 153 % of control

**Q.** What about the T/C (endpoint: mean tumor weight, dose: 100.0 mg/kg/injection, schedule: Q01DX009 (ip), vehicle: saline) of the same compound?
**A.** 207 % of control

**Q.** What about the T/C (endpoint: median tumor weight (est.), dose: 100.0 mg/kg/injection, schedule: Q07DX005 (ip), vehicle: saline) of the same compound?
**A.** 50 % of control and 67 % of control

**Q.** What about the T/C (endpoint: median tumor weight (est.), dose: 200.0 mg/kg/injection, schedule: Q07DX005 (ip), vehicle: saline) of the same compound?
**A.** 58 % of control and 68 % of control

**Q.** What about the T/C (endpoint: median tumor weight (est.), dose: 1600.0 mg/kg/injection, schedule: Q07DX005 (ip), vehicle: saline) of the same compound?
**A.** 27 % of control and 51 % of control

**Q.** And the T/C (endpoint: median tumor weight change, dose: 250.0 mg/kg/injection, schedule: Q01DX001 (ip), vehicle: saline)?
**A.** 75 % of control

**Q.** What about the T/C (endpoint: median tumor weight change, dose: 500.0 mg/kg/injection, schedule: Q01DX001 (ip), vehicle: saline) of the same compound?
**A.** 121 % of control

**Q.** What about the T/C (endpoint: median tumor weight change, dose: 1000.0 mg/kg/injection, schedule: Q01DX001 (ip), vehicle: saline) of the same compound?
**A.** 120 % of control

**Q.** What about the T/C (endpoint: median tumor weight change, dose: 2000.0 mg/kg/injection, schedule: Q01DX001 (ip), vehicle: saline) of the same compound?
**A.** 174 % of control

**Q.** How did the T/C (endpoint: median tumor weight change, dose: 7.81 mg/kg/injection, schedule: Q01DX001 (ip), vehicle: saline) turn out when COc1ccc(C(=O)C(CN(C)C)CN(C)C)cc1 was run?
**A.** 103 % of control

**Q.** And the T/C (endpoint: median tumor weight change, dose: 15.62 mg/kg/injection, schedule: Q01DX001 (ip), vehicle: saline)?
**A.** 88 % of control

**Q.** What about the T/C (endpoint: median tumor weight change, dose: 31.25 mg/kg/injection, schedule: Q01DX001 (ip), vehicle: saline) of the same compound?
**A.** 84 % of control

**Q.** Which T/C [1] does the source give for CC1=C(/C=C/C(C)=C/C=C/C(C)=C/C=O)C(C)(C)CCC1 here?
**A.** 104 % of control

**Q.** And the T/C [3]?
**A.** 74 % of control

**Q.** For Cc1c2oc3c(C)ccc(C(=O)NC4C(=O)NC(C(C)C)C(=O)N5CCCC5C(=O)N(C)CC(=O)N(C)C(C(C)C)C(=O)OC4C)c3nc-2c(C(=O)NC2C(=O)NC(C(C)C)C(=O)N3CCCC3C(=O)N(C)CC(=O)N(C)C(C(C)C)C(=O)OC2C)c(N)c1=O (stereo not drawn) (I: TVP[Sar][NMeV] / II: TVP[Sar][NMeV]; ester I:1-I:C, II:1-II:C; linker I:N-II:N via Actinocin(9to1); configuration not given here), which T/C (endpoint: median tumor weight (est.), dose: 0.5 mg/kg/injection, schedule: Q07DX005 (ip), vehicle: saline) is on record?
**A.** 26 % of control and 30 % of control

**Q.** What about the T/C (endpoint: median tumor weight (est.), dose: 1.0 mg/kg/injection, schedule: Q07DX005 (ip), vehicle: saline) of the same compound?
**A.** 3 % of control and 20 % of control

**Q.** Which results are given for CC[C@]1(O)C[C@H](OC2CC(N(C)C)C(OC3CC(O)C(O)C(C)O3)C(C)O2)c2c(cc3c(c2O)C(=O)c2c(O)ccc(O)c2C3=O)[C@H]1C(=O)OC (stereo partly drawn)?
**A.** T/C (endpoint: median tumor weight (est.), dose: 0.5 mg/kg/injection, schedule: Q07DX005 (ip), vehicle: Klucel (hydroxypropylcellulose) (HPC)): 170 % of control; T/C (endpoint: median tumor weight (est.), dose: 1.0 mg/kg/injection, schedule: Q07DX005 (ip), vehicle: Klucel (hydroxypropylcellulose) (HPC)): 204 % of control; T/C (endpoint: median tumor weight (est.), dose: 4.0 mg/kg/injection, schedule: Q07DX005 (ip), vehicle: Klucel (hydroxypropylcellulose) (HPC)): 63 % of control

**Q.** What does the source list for Cc1cc(NCCCCCCCCNc2cc(C)nc3cc(N(C)C)ccc23)c2ccc(N(C)C)cc2n1?
**A.** T/C (endpoint: median tumor weight change, dose: 31.0 mg/kg/injection, schedule: Q01DX001 (ip), vehicle: distilled water + Tween-80): 35 % of control; T/C (endpoint: median tumor weight change, dose: 62.5 mg/kg/injection, schedule: Q01DX001 (ip), vehicle: distilled water + Tween-80): 47 % of control and 54 % of control; T/C (endpoint: median tumor weight change, dose: 125.0 mg/kg/injection, schedule: Q01DX001 (ip), vehicle: distilled water + Tween-80 + alcohol): 105 % of control; T/C (endpoint: median tumor weight change, dose: 250.0 mg/kg/injection, schedule: Q01DX001 (ip), vehicle: distilled water + Tween-80 + alcohol): 104 % of control
